Literature values as cited in patent US10024828B2, “Adsorbent and analysis method using same” (Hitachi High-Technologies Corporation, priority 2013, dated 2018).

Conditions: source not stated (calculated or measured value)

Structure (SMILES)	log P (octanol-water partition coefficient)
O=c1[nH]cc(F)c(=O)[nH]1 [5-fluorouracil]	−0.57
CN(Cc1cnc2nc(N)nc(N)c2n1)c1ccc(C(=O)N[C@@H](CCC(=O)O)C(=O)O)cc1 [methotrexate]	−0.91
Nc1ccn([C@@H]2O[C@H](CO)[C@@H](O)C2(F)F)c(=O)n1 [gemcitabine]	0.14
